Assay results as given in patent US9603896B2, “Peptide compounds and methods of production and use thereof” (priority 2012, dated 2017).
Read-outs that look alike come from different tables or passages of the source. Square brackets hold non-standard residues; d marks the D form. Peptide text beside a SMILES is read from it. AEEA = NCCOCCOCC(=O)O

How the values were obtained:
[1] = test system: Pseudomonas aeruginosa ATCC® 27853™; type: cell-based; design: Log reduction of Pseudomonas: dose or concentration left out as unconfirmed; conditions: for Effects of Peptide Compounds on Pseudomonas aeruginosa ATCC ® 27853 ™: Table 6, 5 × 10^3 CFU/ml unless italicized = 1 × 10^5 CFU/ml; for Log reduction of Pseudomonas: starting inoculum 1×10^6 CFU/ml, 60 to 180 minute incubation
[2] = LPS binding, Limulus Amebocyte Lysate (LAL) assay; design: species or system Pseudomonas
Description: (§1) The well-characterized response of RAW264.7 macrophage cells was used to produce tumor necrosis-factor-alpha (TNF-α) in response to LPS to determine whether the peptides could dampen the release of this cytokine. […] Importantly, pre-treatment (3 hours prior to LPS addition) as well as post-treatment of the RAW264.7 cells (3 hours post LPS addition) with peptide dampened the cytokine release. […] The finding that the novel peptides bind and neutralize the effect of Pseudomonas LPS is of critical importance since this ensures that the novel therapeutic peptide compounds described herein will not only kill the bacteria, but will also neutralize the LPS endotoxin released by the bacteria which plays such an important role in the rapid progression of sepsis.
(§2) BCC01-5RMP (SEQ ID NO:21), BCC02-5RMP (SEQ ID NO:22), and BCC03-5RMP (SEQ ID NO:23) were tested for their ability to bind lipopolysaccharide (LPS) using the limulus amebocyte lysate method (LAL). […] There was no statistical difference in their ability to bind LPS using the LAL technique. The ability of the peptides to neutralize LPS was assessed by determining their ability to attenuate the release of tumor necrosis factor-alpha (TNF-α) from LPS-stimulated RAW264.7 cells (a mouse macrophage cell line). […] No significant differences were observed between the three peptides to neutralize LPS as measured by cytokine release.

[3] = test system: E. coli ATCC® strain 25922™; type: cell-based, Escherichia coli; design: Log reduction of E. coli: dose or concentration left out as unconfirmed; Effects of Peptide Compounds on Escherichia coli ATCC ® 25922 ™: unit not given here; conditions: for Effects of Peptide Compounds on Escherichia coli ATCC ® 25922 ™: Table 6, 5 × 10^3 CFU/ml unless italicized = 1 × 10^5 CFU/ml; for Log reduction of E. coli: 25, starting inoculum 1×10^6 CFU/ml, 60 to 180 minute incubation
Description: The three peptide compounds BCC01-5RMP (SEQ ID NO:21), BCC02-5RMP (SEQ ID NO:22), and BCC03-5RMP (SEQ ID NO:23) were assayed for in vitro bactericidal activity against Pseudomonas aeruginosa, Escherichia coli, Salmonella typhimurium, and Acinetobacter baumannii. […] The CFU remaining at the end of 60 to 180 minute incubation was determined, and the data plotted as a log reduction in CFU/ml.
Tables 4-6 show the results of various peptides and peptide compounds against P. aeruginosa and E. coli strains. Tables 4 and 5 show the results of an investigation of the effects of peptide or peptide compounds BCC03-5RMP (SEQ ID NO:23), BCC03-MP (SEQ ID NO:24) and BCC03-5R (SEQ ID NO:20) against P. aeruginosa ATCC® strain 27853™ and E. coli ATCC® strain 25922™ (American Type Culture Collection, Manassas, Va.). […] Table 6 compares the activity of several other compounds, including the “5R” versions of BCC01, i.e., SEQ ID NO:18 (which comprises SEQ ID NO:1 with five additional arginines), the “5R” version of BCC02 (i.e., SEQ ID NO:19, which comprises SEQ ID NO:2 with five additional arginines), and BCC03-5RMP (SEQ ID NO:23), and BCC03-MP (SEQ ID NO:24, i.e., without the five additional R residues). The data generally indicate the superiority of BCC03-5RMP (SEQ ID NO:23) against E. coli, and the superiority of the 5R or 5RMP versions of the peptide over the “AEEA only” peptide against P. aeruginosa.

[4] = test system: TNF-α release from LPS-stimulated RAW264.7 cells; experiment: LPS neutralization: TNF-α release from LPS-stimulated RAW264.7 cells; type: cell-based, mouse; conditions: Pseudomonas LPS
Description: as §1, §2

[5] = test system: Pseudomonas clinical isolate B64; experiment: BIOSCREEN C™ growth assay, antibiotic and peptide combinations; type: cell-based, Pseudomonas aeruginosa
Description: Cefotaxime (Cefo) and peptide combinations included a constant amount of Cefotaxime (2.81 μg/ml) with suboptimal amounts of peptide (0, 0.34, 1.01, and 3.04 μg/ml).
The peptide and antibiotics were set up in the wells of the microtiter plate at starting ratios of MIC equivalents of antibiotic:peptide at 3:1, 1:1, and 1:3. They were serially diluted to concentrations well below suboptimal/sublethal levels of the antibiotic and peptide. The organism was added (1×10^5 CFU/well), the BIOSCREEN C™ assay (Growth Systems USA, Piscataway, N.J.) was performed, and data was collected over 24 hours.

[6] = test system: P. aeruginosa (ATCC® 27853™); experiment: Pseudomonas keratitis model in the mouse eye; type: in vivo; conditions: C57/BL mice, topical, concentrations between 0.25 and 0.75 mg/ml
Description: A circular wound was created on the mouse cornea by removing the epithelium and infected with 10^5 colony forming units (CFU) of P. aeruginosa (ATCC® 27853™ (American Type Culture Collection, Manassas, Va.)). Infected wounds were treated with saline (0.9% sodium chloride, vehicle control) or saline containing indicated concentrations of peptide every 15 minutes for 2 hours, then every 30 minutes for 3 hours on the first day. Infected wounds were treated twice on the second day and once on the third day. Mice were killed at 48 hours post-infection, and CFU/eye were quantified. The means were plotted and are representative of 5 to 9 mice per group. Mann Whitney test was performed for each group as compared to the saline control group. *P=0.014.
A circular wound (2 mm) was created on the mouse cornea by removing the epithelium and infecting the wound with 10^5 CFU of P. aeruginosa (ATCC® 27853™ (American Type Culture Collection, Manassas, Va.)). Infected wounds were treated with saline or saline containing indicated concentrations of peptide every 15 minutes for 2 hours, then every 30 minutes for 3 hours on the first day. Infected wounds were treated twice on the second day and once on the third day. Mice were killed at 48 hours post-infection, and the colony forming units per eye (CFU/eye) were quantified. The means are plotted and are representative of 5 to 9 mice per group. Mann Whitney test was performed for each group as compared to the saline control group.
For FIGS. 15-17, in vivo bactericidal activity of the peptides was also investigated using the standard Pseudomonas keratitis model in the mouse eye (FIGS. 15-17). Peptides 120-146QR-5RMP (SEQ ID NO:32), 120-146WH (SEQ ID NO:31), and 120-146WR (SEQ ID NO: 30) were applied topically at doses of 2, 5, 10, and 20 mg/ml to the wounded cornea that had been infected with 10^5 CFU of Pseudomonas aeruginosa. The efficacies of the peptides were compared to treatment with the vehicle control. Mice were euthanized at 48 hours post infection, and the CFU/eye were quantified.

Compound: CC[C@H](C)[C@H](NC(=O)[C@H](CC(C)C)NC(=O)[C@H](C)NC(=O)CNC(=O)CNC(=O)[C@H](CS)NC(=O)[C@H](Cc1ccccc1)NC(=O)[C@H](Cc1c[nH]cn1)NC(=O)[C@H](CCCNC(=N)N)NC(=O)CNC(=O)[C@H](CCC(N)=O)NC(=O)[C@H](CC(N)=O)NC(=O)[C@H](CCCNC(=N)N)NC(=O)[C@H](CCCNC(=N)N)NC(=O)[C@H](CCCNC(=N)N)NC(=O)[C@H](CCCNC(=N)N)NC(=O)COCCOCCNC(=O)COCCOCCN)C(=O)N[C@@H](Cc1c[nH]cn1)C(=O)N[C@@H](C)C(=O)N[C@@H](CCCNC(=N)N)C(=O)N[C@@H](Cc1ccccc1)C(=O)N[C@H](C(=O)N[C@@H](CCSC)C(=O)N[C@H](C(=O)N[C@@H](C)C(=O)N[C@@H](C)C(=O)N[C@@H](CO)C(=O)N[C@@H](CO)C(=O)N[C@@H](Cc1ccccc1)C(=O)N[C@@H](CCC(N)=O)C(=O)N[C@@H](CCCNC(=N)N)C(=O)O)[C@@H](C)O)C(C)C [BCC03-5RMP] (H-[AEEA][AEEA]RRRRNQGRHFCGGALIHARFVMTAASSFQR-OH; N-terminus assumed)
- Effects of Peptide Compounds on Pseudomonas aeruginosa ATCC ® 27853 ™ ([1]; 0.78 μg/ml): 87.4
- Effects of Peptide Compounds on Pseudomonas aeruginosa ATCC ® 27853 ™ ([1]; 1.56 μg/ml): 96.6
- Effects of Peptide Compounds on Pseudomonas aeruginosa ATCC ® 27853 ™ ([1]; 3.125 μg/ml): 98.4
- Effects of Peptide Compounds on Pseudomonas aeruginosa ATCC ® 27853 ™ ([1]; 6.25 μg/ml): 99.8
- Effects of Peptide Compounds on Pseudomonas aeruginosa ATCC ® 27853 ™ ([1]; 12.5 μg/ml): 99.9
- Effects of Peptide Compounds on Pseudomonas aeruginosa ATCC ® 27853 ™ ([1]; 25 μg/ml): 100.0
- Effects of Peptide Compounds on Pseudomonas aeruginosa ATCC ® 27853 ™ ([1]; 50 μg/ml): 100.0
- Effects of Peptide Compounds on Pseudomonas aeruginosa ATCC ® 27853 ™ ([1]; 100 μg/ml): 100.0
- Effects of Peptide Compounds on Pseudomonas aeruginosa ATCC ® 27853 ™ ([1]; 200 μg/ml): 100.0
- binding of Pseudomonas LPS [2]: bound Pseudomonas LPS
- Effects of Peptide Compounds on Escherichia coli ATCC ® 25922 ™ ([3]; 0.78 μg/ml): 12.3
- Effects of Peptide Compounds on Escherichia coli ATCC ® 25922 ™ ([3]; 1.56 μg/ml): 23.0
- Effects of Peptide Compounds on Escherichia coli ATCC ® 25922 ™ ([3]; 3.125 μg/ml): 32.8
- Effects of Peptide Compounds on Escherichia coli ATCC ® 25922 ™ ([3]; 6.25 μg/ml): 78.7
- Effects of Peptide Compounds on Escherichia coli ATCC ® 25922 ™ ([3]; 12.5 μg/ml): 99.3
- Effects of Peptide Compounds on Escherichia coli ATCC ® 25922 ™ ([3]; 25 μg/ml): 99.7
- Effects of Peptide Compounds on Escherichia coli ATCC ® 25922 ™ ([3]; 50 μg/ml): 99.9
- Effects of Peptide Compounds on Escherichia coli ATCC ® 25922 ™ ([3]; 100 μg/ml): 99.9
- Effects of Peptide Compounds on Escherichia coli ATCC ® 25922 ™ ([3]; 200 μg/ml): 99.9
- neutralization of LPS: release of TNF-α [4]: attenuate the release of TNF-α

Compound: CC[C@H](C)[C@H](NC(=O)[C@H](CC(C)C)NC(=O)[C@H](C)NC(=O)CNC(=O)CNC(=O)[C@H](CO)NC(=O)[C@H](Cc1ccccc1)NC(=O)[C@H](Cc1c[nH]cn1)NC(=O)[C@H](CCCNC(=N)N)NC(=O)CNC(=O)[C@H](CCC(N)=O)NC(=O)[C@H](CC(N)=O)NC(=O)[C@H](CCCNC(=N)N)NC(=O)[C@H](CCCNC(=N)N)NC(=O)[C@H](CCCNC(=N)N)NC(=O)[C@H](CCCNC(=N)N)NC(=O)COCCOCCNC(=O)COCCOCCN)C(=O)N[C@@H](Cc1c[nH]cn1)C(=O)N[C@@H](C)C(=O)N[C@@H](CCCNC(=N)N)C(=O)N[C@@H](Cc1ccccc1)C(=O)N[C@H](C(=O)N[C@@H](CCSC)C(=O)N[C@H](C(=O)N[C@@H](C)C(=O)N[C@@H](C)C(=O)N[C@@H](CO)C(=O)N[C@@H](CS)C(=O)N[C@@H](Cc1ccccc1)C(=O)N[C@@H](CCC(N)=O)C(=O)N[C@@H](CCCNC(=N)N)C(=O)O)[C@@H](C)O)C(C)C [BCC02-5RMP] (H-[AEEA][AEEA]RRRRNQGRHFSGGALIHARFVMTAASCFQR-OH)
- sensitivity of the bacterium to Cefotaxime on addition of peptide ([5]; 3.04 μg/ml of peptide plus Cefotaxime 2.81 μg/ml, P=0.0143): now sensitive
- effect of peptide on the killing effect of Cefotaxime ([5]; 0.34 and 1.0 μg/ml of peptide plus Cefotaxime 2.81 μg/ml): no statistical effect
- bacteria in the eye (CFU/eye) at 48 hours post-infection [6]: effectively killed all bacteria and cured the infection
- Log reduction of Pseudomonas [1]: 4
- binding of Pseudomonas LPS [2]: bound Pseudomonas LPS
- Log reduction of E. coli [3]: 4
- neutralization of LPS: release of TNF-α [4]: attenuate the release of TNF-α

Compound: CC[C@H](C)[C@H](NC(=O)[C@H](CC(C)C)NC(=O)[C@H](C)NC(=O)CNC(=O)CNC(=O)[C@H](CS)NC(=O)[C@H](Cc1ccccc1)NC(=O)[C@H](Cc1c[nH]cn1)NC(=O)[C@H](CCCNC(=N)N)NC(=O)CNC(=O)[C@H](CCC(N)=O)NC(=O)[C@H](CC(N)=O)NC(=O)[C@H](CCCNC(=N)N)NC(=O)[C@H](CCCNC(=N)N)NC(=O)[C@H](CCCNC(=N)N)NC(=O)[C@H](CCCNC(=N)N)NC(=O)COCCOCCNC(=O)COCCOCCN)C(=O)N[C@@H](Cc1c[nH]cn1)C(=O)N[C@@H](C)C(=O)N[C@@H](CCCNC(=N)N)C(=O)N[C@@H](Cc1ccccc1)C(=O)N[C@H](C(=O)N[C@@H](CCSC)C(=O)N[C@H](C(=O)N[C@@H](C)C(=O)N[C@@H](C)C(=O)N[C@@H](CO)C(=O)N[C@@H](CS)C(=O)N[C@@H](Cc1ccccc1)C(=O)N[C@@H](CCC(N)=O)C(=O)N[C@@H](CCCNC(=N)N)C(=O)O)[C@@H](C)O)C(C)C [BCC01-5RMP] (H-[AEEA][AEEA]RRRRNQGRHFCGGALIHARFVMTAASCFQR-OH)
- Log reduction of Pseudomonas [1]: 5
- binding of Pseudomonas LPS [2]: bound Pseudomonas LPS
- Log reduction of E. coli [3]: 3
- neutralization of LPS: release of TNF-α [4]: attenuate the release of TNF-α
